Structures can show the parent of a compound that is named as a salt.
Legend:
[1] = target: T1, human histone deacetylase; assay: Test 1: Determination of Histone Deacetylase Inhibitor Activity; assay type: biochemical; settings: enzyme partially purified from human T cell leukemia Jurkat cells; [3H] acetyl-labeled histones; 25° C., 30 minutes; read-out: Test 1: HDAC inhibitory activity IC50
T1 construct: The human histone deacetylase was partially purified from human T cell leukemia Jurkat cells
Protocol: Test 1: Determination of Histone Deacetylase Inhibitor Activity
The partial purification of human histone deacetylase, the preparation of [^3H] acetyl histones, and the assay for histone deacetylase activity were performed basically according to the method as proposed by Yoshida et al. as follows.
Partial Purification of Human Histone Deacetylase
The human histone deacetylase was partially purified from human T cell leukemia Jurkat cells. Jurkat cells (5×10^8 cells) were suspended in 40 mL of the HDA buffer consisting of 15 mM potassium phosphate, pH 7.5, 5% glycerol and 0.2 mM EDTA. After homogenization, nuclei were collected by centrifugation (35,000×g, 10 min) and homogenized in 20 mL of the same buffer supplemented with 1 M (NH4)2SO4. The viscous homogenate was sonicated and clarified by centrifugation (35,000×g, 10 min), and the deacetylase was precipitated by raising the concentration of (NH4)2SO4 to 3.5 M. The precipitated protein was dissolved in 10 mL of the HDA buffer and dialyzed against 4 liters of the same buffer. The dialyzate was then loaded onto a DEAE-cellulose (Whatman DE52) column (25×85 mm) equilibrated with the same buffer and eluted with 300 mL of a linear gradient (0-0.6 M) of NaCl. A single peak of histone deacetylase activity appeared between 0.3 and 0.4 M NaCl.
Preparation of [^3H] Acetyl Histone
To obtain [^3H] acetyl-labeled histone as the substrate for the histone deacetylase assay, 1×10^8 cells of Jurkat in 20 mL of RPMI-1640 medium (supplemented with 10% FBS, penicillin (50 units/mL) and streptomycin (50 μg/mL)) were incubated with 300 MBq [^3H] sodium acetate in the presence of 5 mM sodium butyrate for 30 minutes in 5% CO2-95% air atmosphere at 37° C. in a 75 cm^2 flask, harvested into a centrifuge tube (50 mL), collected by centrifugation at 1000 rpm for 10 minutes, and washed once with phosphate-buffered saline. The washed cells were suspended in 15 mL of ice-cold lysis buffer (10 mM Tris-HCl, 50 mM sodium bisulfite, 1% Triton X-100, 10 mM MgCl2, 8.6% sucrose, pH 6.5). After Dounce homogenization (30 stroke), the nuclei were collected by centrifugation at 1000 rpm for 10 minutes, washed 3 times with 15 mL of the lysis buffer, and once with 15 mL of ice-cooled washing buffer (10 mM Tris-HCl, 13 mM EDTA, pH 7.4) successively. The pellet was suspended in 6 mL of ice-cooled water using a mixer, and 68 μl of H2SO4 was added to the suspension to give a concentration of 0.4 N. After incubation at 4° C. for 1 hour, the suspension was centrifuged for 5 minutes at 15, 000 rpm, and the supernatant was taken and mixed with 60 mL of acetone. After overnight incubation at −20° C., the coagulated material was collected by microcentrifugation, air-dried, and stored at −80° C.
Assay for Histone Deacetylase Activity
For the standard assay, 10 μl of [^3H] acetyl-labeled histones were added to 90 μl of the enzyme fraction, and the mixture was incubated at 25° C. for 30 minutes. The reaction was stopped by addition of 10 μL of HCl. The released [^3H] acetic acid was extracted with 1 mL of ethyl acetate, and 0.9 mL of the solvent layer was taken into 10 mL of toluene scintillation solution for determination of radioactivity.

[2] = system: splenic cells of Lewis rats; assay: Test 2: Determination of T-Cell Growth Inhibitor Activity (T lymphocyte blastogenesis test); assay type: cell-based; settings: Rattus norvegicus, Concanavalin A added, 72 hours, AlamarBlue Assay, read-out: Test 2: T-cell growth inhibitory activity IC50
Protocol: Test 2: Determination of T-Cell Growth Inhibitor Activity The T lymphocyte blastogenesis test was performed in microtiter plates with each well containing 1.5×10^5 splenic cells of Lewis rats in 0.1 mL RPMI-1640 medium supplemented with 10% fetal bovine serum (FBS), […] 2-mercaptoethanol, penicillin (100 units/mL) and streptomycin (100 μg/mL), to which Concanavalin A (1 μl/mL) was added. The cells were incubated at 37° C. in a humidified atmosphere of 5% CO2 for 72 hours. After the culture period, suppressive activities of the test compounds in T lymphocyte blastogenesis were quantified by AlamarBlue (trademark) Assay. The test samples were dissolved in DMSO and further diluted with RPMI-1640 medium and added to the culture. The activities of the test compounds were expressed as IC50.

Row | Structure (SMILES) | IC50 [1] | IC50 [2]
1 | O=C(/C=C/c1cnc(N[C@@H]2CCN(Cc3ccccc3)C2)cn1)NO [Example 82, (2E)-3-(5-{[(3R)-1-Benzyl-3-pyrrolidinyl]amino}-2-pyrazinyl)-N-hydroxyacrylamide dihydrochloride] | < 10 nM | < 25 nM
2 | O=C(/C=C/c1ccc(N[C@@H]2CCN(CC3CCCCC3)C2)nc1)NO [Example 60, (2E)-3-(6-{[(3R) 1-(Cyclohexylmethyl)-3-pyrrolidinyl]amino}-3-pyridyl)-N-hydroxyacrylamide dihydrochloride] | < 10 nM | < 25 nM
3 | O=C(/C=C/c1ccc(N[C@@H]2CCN(Cc3ccccc3)C2)nc1)NO [Example 3, (2E)-3-(6-{[(3R)-1-Benzyl-3-pyrrolidinyl]amino}-3-pyridyl)-N-hydroxyacrylamide dihydrochloride] | < 10 nM | < 25 nM
4 | O=C(/C=C/c1cnc(N[C@@H]2CCCN(Cc3ccccc3)C2)cn1)NO [Example 76, (2E)-3-(5-{[(3R)-1-Benzyl-3-piperidinyl]amino}-2-pyrazinyl)-N-hydroxyacrylamide dihydrochloride] | < 10 nM | < 25 nM
5 | O=C(/C=C/c1cnc(N[C@@H]2CCN(Cc3ccc(Cl)cc3)C2)cn1)NO [Example 74, (2E)-3-(5-{[(3R)-1-(4-chlorobenzyl)-3-pyrrolidinyl]amino}-2-pyrazinyl)-N-hydroxyacrylamide dihydrochloride] | < 10 nM | < 25 nM

Now from value to compound, other results behind:

Row | IC50 [1] | Structure (SMILES) | IC50 [2]
6 | < 10 nM | CC1=C(CN2CC[C@@H](Nc3ccc(/C=C/C(=O)NO)cn3)C2)C(C)(C)CCC1 [Example 189, (2E)-N-hydroxy-3-[6-({(3R)-1-[(2,6,6-trimethyl-1-cyclohexen-1-yl)methyl]-3-pyrrolidinyl}amino)-3-pyridinyl]acrylamide dihydrochloride] | < 25 nM
7 | < 10 nM | O=C(/C=C/c1cnc(N[C@@H]2CCN(C3CCCCC3)C2)cn1)NO [Example 123, (2E)-3-(5-{[(3R)-1-cyclohexyl-3-pyrrolidinyl]amino}-2-pyrazinyl)-N-hydroxyacrylamide dihydrochloride] | < 25 nM
8 | < 10 nM | O=C(/C=C/c1cnc(N[C@@H]2CCN(CCc3ccccc3)C2)cn1)NO [Example 119, (2E)-N-hydroxy-3-(5-{[(3R)-1-(2-phenylethyl)-3-pyrrolidinyl]amino}-2-pyrazinyl)acrylamide dihydrochloride] | < 25 nM
9 | < 10 nM | O=C(/C=C/c1cnc(N[C@@H]2CCN(C(=O)C3CCCCC3)C2)c(Cl)c1)NO [Example 174, (2E)-3-(5-chloro-6-{[(3R)-1-(cyclohexylcarbonyl)-3-pyrrolidinyl]amino}-3-pyridinyl)-N-hydroxyacrylamide hydrochloride] | < 25 nM
10 | < 10 nM | O=C(/C=C/c1cnc(N[C@@H]2CCN(Cc3ccc(F)cc3)C2)cn1)NO [Example 116, (2E)-3-(5-{[(3R)-1-(4-fluorobenzyl)-3-pyrrolidinyl]amino}-2-pyrazinyl)-N-hydroxyacrylamide dihydrochloride] | < 25 nM

— patent publication US7557127B2, “HDAC inhibitor” (Astellas Pharma Inc., priority 2004, dated 2009)
